According to US7671074B2, “Sulfonylguanidine compounds and pharmaceutical uses thereof” (Gruenenthal GmbH, priority 2000, dated 2010):

How the values were obtained:
[1] = test system: male albino mice (NMRI), formalin-induced nociception; test: Formalin test on mice (second phase); assay type: in vivo, mouse
Method: The investigations to determine the antinociceptive action of the compounds according to the invention were carried out by the formalin test on male albino mice (NMRI, 25-35 g, Iffa Credo, Belgium).
In the formalin test the first (early) phase (0-15 minutes after the formalin injection) and the second (late) phase (15-60 minutes after the formalin injection) differ (D. Dubuisson et al., Pain, Vol. 4, pp. 161-174 (1977)). The early phase, being a direct reaction to the formalin injection, constitutes a model for acute pain, whereas the late phase is regarded as a model for persistent (chronic) pain (T. J. Coderre et al., Pain, Vol. 52, pp. 259-285 (1993)).
The compounds according to the invention were investigated in the second phase of the formalin test in order to obtain information on the effects of substances in chronic/inflammatory pain. By means of a single subcutaneous formalin injection (20 μl, 1% aqueous solution) into the dorsal side of the right-hand rear paw, a nociceptive reaction was induced in unconstrained experimental animals, manifested in a noticeable licking and biting of the affected paw.
The nociceptive behavior for the test period in the second (late) phase of the formalin test was continuously monitored by observing the animals. The pain reaction was quantified by totaling the time in seconds during which the animals continued to lick and bite the affected paw during the investigation period. After injecting substances that have an antinociceptive effect in the formalin test, the aforedescribed behavior pattern of the animals is reduced or possibly even cancelled.
Corresponding to the substance tests, in which the animals had been injected with the test substance before formalin, the control animals were injected with a vehicle, i.e. solvent (e.g. 0.9% NaCl solution) before the formalin injection. […]
Based on the quantification of the pain reaction, the effect of the substance in the formalin test was determined as the change in the control in percentage terms. […]

gabapentin binding site = test: Binding assay: displacement of gabapentin from its binding site
Method: Gabapentin was used in a binding assay in order to check the binding and affinities of the selected compounds. The affinity of the compounds according to the invention was measured via the displacement of gabapentin from its binding site.

[2] = test system: male Sprague-Dawley rats with L5/L6 spinal nerve ligatures; test: In vivo experiments according to Chung (spinal nerve ligation, tactile withdrawal threshold); set-up: species or system rat; conditions: further investigation
Method: In male Sprague-Dawley rats spinal nerve ligatures were applied according to Kim and Chung (1992) to the left L5/L6 spinal nerves. At the same time spinal catheters were implanted according to Pogatzki et al. ^6 (2000). 4 to 6 days after the operation the tactile threshold baseline (withdrawal thresholds) was measured on the ipsilateral and contra lateral rear paw by an electronic vonFrey anaesthesiometer (IITC Life Science, USA). […] After the test and baseline measurement, gabapentin and substances according to the invention were administered. The tactile withdrawal thresholds were measured 30 minutes after administration. The results are expressed as ED50 and % maximal possible effect (% MPE; % of the maximal possible effect) on the ipsilateral side, in which the baseline is taken as 0% and the withdrawal threshold of a control group is taken as 100% MPE.

N/C(=N\S(=O)(=O)c1ccc(Cl)cc1)NCc1ccccn1 [Example 21, N-{amino-[(pyridin-2-yl-methyl)-amino]-methylene}-4-chlorobenzenesulfonamide]
ED50 ([1]; Mus musculus, second (late) phase of the formalin test, read-out: Formalin Test on Mice - ED50): 97 mg/kg
inhibition of the formalin-induced nociception ([1]; result in words): exhibited an inhibition of the formalin-induced nociception
IC50 (gabapentin binding site; displacement of gabapentin from its binding site): 779 nM
Percent inhibition (gabapentin binding site; inhibition/displacement of gabapentin, concentration 10^−5 μM [sic]): 75%
ED50 ([2]; Rattus norvegicus, read-out:, table title: Analgesia testing in rats according to Chung): 13.3 mg/kg
effect compared with gabapentin ([2]; rats, Chung test, result in words): superior in their effect to gabapentin
effect in the Chung test ([2]; rats, result in words): show an effect
